Experimental data published in ChEMBL document CHEMBL3885861, “Open TG-GATES”.

Species: Rattus norvegicus
Experiment: Open TG-GATES - Regimen: Single
Format: toxicity, organism-based, Sprague-Dawley
Design: regimen Single, gender Male, age 6 weeks
Conditions: in vivo, po, 30 mg/kg, route gavage, dose level High; for APTT / Bas / Eos / Fbg / Hb / Ht / Lym / MCH / MCHC / MCV / Mono / Neu / PT / Plat / RBC / Ret / WBC: tissue Blood; for KIDNEY_L / KIDNEY_R / KIDNEY_TOTAL: tissue Kidney; for LIVER: tissue Liver; for A/G / ALP / ALT / AST / BUN / CRE / Ca / Cl / DBIL / GLC / IP / K / LDH / Na / PL / RALB / TBIL / TC / TG / TP / gamma-GTP: tissue Plasma

C=CCO [ALLYL ALCOHOL]
TERMINAL_BW (3 h): 222.7 g | APTT (3 h): 19.6 s | Bas (3 h): 0% | Eos (3 h): 1% | Fbg (3 h): 211.6 mg/dL | Hb (3 h): 13.4 g/dL | Ht (3 h): 38.7% | Lym (3 h): 75% | MCH (3 h): 21.7 pg | MCHC (3 h): 34.8% | MCV (3 h): 62.3 fL | Mono (3 h): 3% | Neu (3 h): 20.4% | PT (3 h): 12.4 s | Plat (3 h): 134.6 x10_4/uL | RBC (3 h): 622.4 x10_4/ul | Ret (3 h): 7.4% | WBC (3 h): 88.9 x10_2/uL | KIDNEY_L (3 h): 1 g | KIDNEY_R (3 h): 1 g | KIDNEY_TOTAL (3 h): 1.9 g | LIVER (3 h): 10.3 g | A/G (3 h): 1.5 | ALP (3 h): 976.6 IU/L | ALT (3 h): 42.8 IU/L | AST (3 h): 77.2 IU/L | BUN (3 h): 12 mg/dL | CRE (3 h): 0.3 mg/dL | Ca (3 h): 11 mg/dL | Cl (3 h): 101.6 meq/L | DBIL (3 h): 0.5 mg/dL | GLC (3 h): 202.2 mg/dL | IP (3 h): 8.9 mg/dL | K (3 h): 3.7 meq/L | LDH (3 h): 233.4 IU/L | Na (3 h): 140.8 meq/L | PL (3 h): 177 mg/dL | RALB (3 h): 3.4 g/dL | TBIL (3 h): 0.6 mg/dL | TC (3 h): 80 mg/dL | TG (3 h): 255 mg/dL | TP (3 h): 5.6 g/dL | gamma-GTP (3 h): 1.2 IU/L | TERMINAL_BW (6 h): 220.4 g | APTT (6 h): 19.3 s | Bas (6 h): 0% | Eos (6 h): 1% | Fbg (6 h): 217 mg/dL | Hb (6 h): 13.5 g/dL | Ht (6 h): 39.5% | Lym (6 h): 67% | MCH (6 h): 20.5 pg | MCHC (6 h): 34% | MCV (6 h): 60.2 fL | Mono (6 h): 5.2% | Neu (6 h): 25.8% | PT (6 h): 12.4 s | Plat (6 h): 129.3 x10_4/uL | RBC (6 h): 658 x10_4/ul | Ret (6 h): 7.1% | WBC (6 h): 127.5 x10_2/uL | KIDNEY_L (6 h): 0.9 g | KIDNEY_R (6 h): 0.9 g | KIDNEY_TOTAL (6 h): 1.9 g | LIVER (6 h): 9.4 g | A/G (6 h): 1.4 | ALP (6 h): 1023.4 IU/L | ALT (6 h): 101.2 IU/L | AST (6 h): 168.4 IU/L | BUN (6 h): 10.2 mg/dL | CRE (6 h): 0.4 mg/dL | Ca (6 h): 10.5 mg/dL | Cl (6 h): 102.4 meq/L | DBIL (6 h): 0.1 mg/dL | GLC (6 h): 198.4 mg/dL | IP (6 h): 9.2 mg/dL | K (6 h): 3.8 meq/L | LDH (6 h): 564.8 IU/L | Na (6 h): 140.6 meq/L | PL (6 h): 168 mg/dL | RALB (6 h): 3.1 g/dL | TBIL (6 h): 0.2 mg/dL | TC (6 h): 85.4 mg/dL | TG (6 h): 97.6 mg/dL | TP (6 h): 5.3 g/dL | gamma-GTP (6 h): 2 IU/L | TERMINAL_BW (9 h): 216.4 g | APTT (9 h): 18.7 s | Bas (9 h): 0% | Eos (9 h): 1% | Fbg (9 h): 222.2 mg/dL | Hb (9 h): 13.2 g/dL | Ht (9 h): 38.8% | Lym (9 h): 66.8% | MCH (9 h): 21.3 pg | MCHC (9 h): 34.1% | MCV (9 h): 62.5 fL | Mono (9 h): 3.2% | Neu (9 h): 28.6% | PT (9 h): 12.4 s | Plat (9 h): 129.2 x10_4/uL | RBC (9 h): 620.6 x10_4/ul | Ret (9 h): 7.4% | WBC (9 h): 104.8 x10_2/uL | KIDNEY_L (9 h): 1 g | KIDNEY_R (9 h): 1 g | KIDNEY_TOTAL (9 h): 2 g | LIVER (9 h): 9.3 g | A/G (9 h): 1.5 | ALP (9 h): 1007 IU/L | ALT (9 h): 30.6 IU/L | AST (9 h): 64.2 IU/L | BUN (9 h): 11.4 mg/dL | CRE (9 h): 0.4 mg/dL | Ca (9 h): 10.3 mg/dL | Cl (9 h): 101.4 meq/L | DBIL (9 h): 0.086 mg/dL | GLC (9 h): 206.8 mg/dL | IP (9 h): 10.5 mg/dL | K (9 h): 4.2 meq/L | LDH (9 h): 200 IU/L | Na (9 h): 139 meq/L | PL (9 h): 141.2 mg/dL | RALB (9 h): 3.1 g/dL | TBIL (9 h): 0.1 mg/dL | TC (9 h): 73 mg/dL | TG (9 h): 63.8 mg/dL | TP (9 h): 5.2 g/dL | gamma-GTP (9 h): 0.8 IU/L | TERMINAL_BW (24 h): 231.4 g | APTT (24 h): 18.2 s | Bas (24 h): 0% | Eos (24 h): 1% | Fbg (24 h): 257.2 mg/dL | Hb (24 h): 13 g/dL | Ht (24 h): 38.3% | Lym (24 h): 67.4% | MCH (24 h): 20.9 pg | MCHC (24 h): 34.1% | MCV (24 h): 61.4 fL | Mono (24 h): 4.4% | Neu (24 h): 26.8% | PT (24 h): 11.9 s | Plat (24 h): 138.1 x10_4/uL | RBC (24 h): 625 x10_4/ul | Ret (24 h): 6.1% | WBC (24 h): 103.6 x10_2/uL | KIDNEY_L (24 h): 1 g | KIDNEY_R (24 h): 1 g | KIDNEY_TOTAL (24 h): 2 g | LIVER (24 h): 11.5 g | A/G (24 h): 1.4 | ALP (24 h): 963.8 IU/L | ALT (24 h): 33.6 IU/L | AST (24 h): 64 IU/L | BUN (24 h): 12.6 mg/dL | CRE (24 h): 0.4 mg/dL | Ca (24 h): 10.4 mg/dL | Cl (24 h): 102.4 meq/L | DBIL (24 h): 0.052 mg/dL | GLC (24 h): 203.8 mg/dL | IP (24 h): 7.6 mg/dL | K (24 h): 3.6 meq/L | LDH (24 h): 209.8 IU/L | Na (24 h): 141 meq/L | PL (24 h): 148 mg/dL | RALB (24 h): 3 g/dL | TBIL (24 h): 0.1 mg/dL | TC (24 h): 81.6 mg/dL | TG (24 h): 83 mg/dL | TP (24 h): 5.1 g/dL | gamma-GTP (24 h): 0.8 IU/L
